Measurements published in ChEMBL document CHEMBL4680171, “Oxadiazolylthiazoles as novel and selective antifungal agents” (Eur J Med Chem, 2020).
Converted amounts (≈) assume the structure as drawn.

Experiments:
Type in all cases: functional
Staphylococcus aureus = assay: Antibacterial activity against methicillin resistant Staphylococcus aureus subsp. aureus USA300 assessed as reduction in bacterial growth by CLSI based broth microdilution method
Escherichia coli [1] = assay: Antibacterial activity against Escherichia coli JW55031 harboring tolC mutation assessed as reduction in bacterial growth by CLSI based broth microdilution method
Escherichia coli [2] = assay: Antibacterial activity against Escherichia coli BW25113 assessed as reduction in bacterial growth by CLSI based broth microdilution method
Clostridioides difficile = assay: Antibacterial activity against Clostridium difficile BAA1870 assessed as reduction in bacterial growth by CLSI based broth microdilution method
Candida albicans = assay: Antifungal activity against Candida albicans SS5314 assessed as reduction in fungal growth by CLSI based broth microdilution method

Compound	MIC (Staphylococcus aureus) [µg/mL]	MIC (Escherichia coli [1]) [µg/mL]	MIC (Escherichia coli [2]) [µg/mL]	MIC (Clostridioides difficile) [µg/mL]	MIC (Candida albicans) [µg/mL]
Cc1nc(-c2ccc(C(C)(C)C)cc2)sc1-c1nnc(NCCO)o1	> 64	> 64	> 64	32 (≈ 89.3 µM)	> 64
Cc1nc(-c2ccc(C(C)(C)C)cc2)sc1-c1nnc(N2CC[C@@H](N(C)C)C2)o1	> 64	> 64	> 64	> 64	> 64
Cc1nc(-c2ccc(C(C)(C)C)cc2)sc1-c1nnc(NCCN(C)C)o1	64 (≈ 166 µM)	32 (≈ 83 µM)	> 64	16 (≈ 41.5 µM)	32 (≈ 83 µM)
Cc1nc(-c2ccc(C(C)(C)C)cc2)sc1-c1nnc(N2CC[C@H](N(C)C)C2)o1	> 64	> 64	> 64	32 (≈ 77.8 µM)	> 64
Cc1nc(-c2ccc(C(C)(C)C)cc2)sc1-c1nnc(NCC(=N)N)o1	> 64	> 64	> 64	64 (≈ 173 µM)	> 64
Cc1nc(-c2ccc(C(C)(C)C)cc2)sc1-c1nnc(NC(CO)CO)o1	> 64	> 64	> 64	> 64	> 64
Cc1nc(-c2ccc(C(C)(C)C)cc2)sc1-c1nnc(NC2CCNC2)o1 (stereo not given)	32 (≈ 83.4 µM)	32 (≈ 83.4 µM)	> 64	16 (≈ 41.7 µM)	> 64
Cc1nc(-c2ccc(C(C)(C)C)cc2)sc1-c1nnc(NC[C@H](O)CO)o1	> 64	32 (≈ 82.4 µM)	> 64	16 (≈ 41.2 µM)	> 64
Cc1nc(-c2ccc(C(C)(C)C)cc2)sc1-c1nnc(N2CCC[C@H]2CO)o1	> 64	> 64	> 64	16 (≈ 40.1 µM)	> 64
Cc1nc(-c2ccc(C(C)(C)C)cc2)sc1-c1nnc(NCCN)o1	8 (≈ 22.4 µM)	> 64	> 64	> 64	32 (≈ 89.5 µM)
Cc1nc(-c2ccc(C(C)(C)C)cc2)sc1-c1nnc(N[C@H]2CC[C@H](N)CC2)o1	32 (≈ 77.8 µM)	32 (≈ 77.8 µM)	> 64	8 (≈ 19.4 µM)	8 (≈ 19.4 µM)
Cc1nc(-c2ccc(C(C)(C)C)cc2)sc1-c1nnc(NCCCO)o1	> 64	> 64	> 64	32 (≈ 85.9 µM)	> 64
